Earlier results in paper PMC12675671 (Nature Communications, 2025).

Test system: WT LRRK2

pIC50 (experimental values), WT: 8.509
Structure (SMILES): COc1cc(C(=O)N2CCC(N3CCN(C)CC3)CC2)ccc1Nc1ncc2c(n1)N(C)c1ccccc1C(=O)N2C [LRRK2-IN-1]
